Measured values reported in patent US4886886A, “Substituted 1,3,4,9-tetrahydropyrano[3,4-b]indole-1-acetic acids” (American Home Products Corporation, priority 1988, dated 1989).

Tests used:
[1] = system: reaction of rats to painful stimulation applied to an inflamed paw; experiment: Randall Selitto Test in the Rat; format: in vivo, Male Sprague Dawley rats; conditions: po, by gastric gavage, 24 hours after adjuvant, pain threshold 1 hour later, read-out: Randall Selitto, ED50 (dose which causes analgesia in 50% of the animals)
From the text: An additional test used to determine the utility of the compounds of the present invention is designated: Randall Selitto Test in the Rat
The objective of this test is to assess the potency of peripheral and central acting drugs in inhibiting the reaction of rats to painful stimulation applied to an inflamed paw.
Male Sprague Dawley rats (180-200 g) are used. The animals are fasted overnight prior to drug administration.
(§1) Drug Preparation and Administration:
Freund's Complete Adjuvant (FCA) is prepared by suspending 5 mg killed and dried mycobacterium butyricum (Difco) in 1 mL mineral oil. The test compounds are dissolved or suspended in 0.5% Tween 80 in distilled water according to their solubility. They are administered by gastric gavage in a volume of 0.5 mL/100 g body weight to groups of 10 animals.
Ten rats are used per group. The method is essentially that described by Randall and Selitto, Arch. Int. Pharmacodyn. […] The force is continuously monitored by a pointer moving along a linear scale and is measured in grams. […] The pain threshold (vocalization) is determined 1 hour later in the inflamed paw of the treated and control groups. […]
Each animal which has a reading 1.5 times greater than the mean reading of the control-group will be considered as responsive (having an analgesic effect) to treatment. The number of animals showing an analgesic effect is then determined in each group. […]

[2] = system: Adjuvant Edema; experiment: Preventative Adjuvant Edema; format: in vivo, Male Sprague Dawley rats; conditions: rat, given days 0, 1 and 2, edema volume on day 3; for Preventative Adjuvant Edema, percent inhibition: 25 mg/kg p.o.
Description: This test is a primary screen for anti-inflammatory drugs.
Male Sprague Dawley rats (180-200 g) are used. The animals have free access to water but food is withdrawn 18 hours before testing.
Drug Preparations and Administration:
Freund's complete adjuvant is prepared by suspending 5 mg of killed and dried Mycobacterium butyricum (Difco) in 1 mL mineral oil. The test compounds are dissolved, or suspended in 0.5% Tween 80 in distilled water according to their solubility. For primary screening all drugs are administered by gastric lavage at the arbitrary dosage of 25 mg/kg, p.o. in a volume of 0.5 mL/100 g body weight to groups of 10 animals.
The method is essentially that described by Wax et al, J. Pharmacol. Exp. Ther., 192, 166-171 (1975). Groups of rats are injected intradermally in the left hind paw with 0.1 mL of Freund's complete adjuvant. The test compound or vehicle is administered immediately before the adjuvant, 24 hours and 48 hours after the adjuvant (days 0, 1 and 2). The injected hind paw volume is measured before the injection of adjuvant and 24 hrs. after the last drug administration (day 3) by means of a plethysmometer (Buxco Electronics Inc.). The difference between the hind paw volume on day 0 and day 3 represents the edema volume. Etodolac (25 mg/kg, p.o.) is included as a positive control.
The mean edema volume (expressed as mL±SEM) is calculated for each group and the percentage protection conferred by the drug is calculated: [formula] where c is the mean edema volume for the vehicle-treated (0.5% Tween 80 in distilled water) controls and t is the mean edema volume for the drug treated group.

[3] = system: Phenylbenzoquinone-induced Writhing; experiment: Drug Effects on Phenylbenzoquinone-induced Writhing in Mice; format: in vivo, Male Swiss albino mice; conditions: mouse, 60 min before PBQ
Description: A further test used to determine the utility of the compounds of the present invention is designated: Drug Effects on Phenylbenzoquinone-induced Writhing in Mice
The objective of this test is to determine the ability of test drugs to inhibit the nociceptive (pain) response of mice injected with a chemical irritant. This test is a primary screen for both peripheral and centrally acting analgesic drugs.
Male Swiss albino mice (15-25 g). The animals are fasted for 18 hours prior to use but have free access to water.
as §1
Drugs are dissolved or suspended according to their solubility in 0.5% Tween 80 in distilled water. They are administered by gastric gavage in a volume of 5 mL/kg. For primary screening all drugs are administered at the arbitary dosage of 25 mg/kg, p.o. to a group of 10 mice.
A modification of the method of Siegmund et al, Proc. Soc. Exp. Biol. Med., 95, 729-731 […] is used. Groups of 5 mice are dosed with the test compound or vehicle control. Sixty minutes later the animals are injected i.p. with 0.3 mL/20 g body weight of a 0.02% solution of phenylbenzoquinone (PBQ; 2-phenyl-1,4-benzoquinone) and placed in individual observation boxes. The number of writhing or abdominal squirming movements made by each mouse during the following 15 min. period is counted. The experiment is repeated with another group of 5 mice and the mean number of writhes per mouse for a group of 10 mice is calculated.
Drug treated and vehicle-treated control groups are compared and the percentage protection conferred by the drug is calculated: [formula]
where c=mean number of writhes in the control group
where t=mean number of writhes in the test drug group

## C=CCc1c(F)ccc2c3c([nH]c12)C(CC)(CC(=O)O)OCC3 (stereo not shown) [Example 1, 1-Ethyl-7-fluoro-1,3,4,9-tetrahydro-8-(2-propenyl)-pyrano[3,4-b]indole-1-acetic Acid]
[1]
  ED50: 0.7 mg/kg
[2]
  Preventative Adjuvant Edema, percent inhibition: 83 percent inhibition
[3]; po, 1 h, p.o., read-out: Phenylquinone Writhing in Mice, ED50
  ED50: 54.7 mg/kg

## C=CCc1cccc2c3c([nH]c12)C(CC)(CC(=O)O)OCC3C (single isomer, unassigned) [Example 3, 1-Ethyl-1,3,4,9-tetrahydro-4-methyl-8-(2-propenyl)-pyrano[3,4-b]indole-1-acetic Acid]
[2]
  Preventative Adjuvant Edema, percent inhibition: 57 percent inhibition
[3]; 10 mg/kg p.o.
  Phenylquinone Writhing in Mice, percent inhibition: 20 percent inhibition

## C=CCc1cccc2c3c([nH]c12)C(CC)(CC(=O)O)OCC3 (stereo not shown) [Example 2, 1-Ethyl-1,3,4,9-tetrahydro-8-(2-propenyl)-pyrano[3,4-b]-1-acetic Acid]
[2]; po, 72 h, p.o.
  ED50: 9 mg/kg
[3]; 200 mg/kg p.o.
  Phenylquinone Writhing in Mice, percent inhibition: 42 percent inhibition
